Assays:
[1] = molecular target: T1, recombinant human oxytocin receptors (Homo sapiens, UniProt P30559); test: Oxytocin receptor binding assay (3H-oxytocin, HEK-293 cells); conditions: selectivity quotient, human OT vs human V1b
T1 construct: expressed in transfected cells; host or cells: HEK-293, transient expression; lysed and homogenized cells
T1 sequence (P30559 1-389): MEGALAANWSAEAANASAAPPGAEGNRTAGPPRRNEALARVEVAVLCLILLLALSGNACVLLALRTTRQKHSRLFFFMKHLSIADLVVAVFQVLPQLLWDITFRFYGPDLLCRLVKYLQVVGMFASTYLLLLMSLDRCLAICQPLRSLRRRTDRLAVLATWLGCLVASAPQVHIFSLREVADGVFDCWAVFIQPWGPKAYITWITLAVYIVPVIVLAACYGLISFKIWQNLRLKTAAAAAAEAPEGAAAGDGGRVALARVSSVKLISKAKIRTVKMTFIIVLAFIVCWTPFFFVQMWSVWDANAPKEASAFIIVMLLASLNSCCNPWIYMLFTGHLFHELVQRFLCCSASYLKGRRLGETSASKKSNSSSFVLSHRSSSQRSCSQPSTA
Protocol: The residue was taken up in ice-cold lysis buffer (50 mM Tris-HCl, 10% glycerol, pH 7.4 and Roche complete protease inhibitor) and subjected to an osmotic shock at 4° C. for 20 minutes. The lyzed cells were then centrifuged at 750×g at 4° C. for 20 minutes, the residue was taken up in incubation buffer, and aliquots of 10^7 cells/ml were prepared. The aliquots were frozen at −80° C. until used.
On the day of the experiment, the cells were thawed, diluted with incubation buffer and homogenized using a Multipette Combitip (Eppendorf, Hamburg). […] Triplicate determinations were set up. Bound and free radioligand were separated by filtration under vacuum with Whatman GF/B glass fiber filters with the aid of a Skatron cell harvester 7000. The bound radioactivity was determined by liquid scintillation measurement in a Tricarb Beta counter, model 2000 or 2200CA (Packard).

[2] = molecular target: human vasopressin V1a receptor (Homo sapiens, UniProt P37288); test: Vasopressin V1a receptor binding assay (125I-AVP displacement, CHO-K1 membranes); conditions: selectivity quotient, human V1a vs human V1b
[3] = molecular target: T2, human vasopressin V1b receptor (Homo sapiens, UniProt P47901); test: Vasopressin V1b receptor binding assay (3H-AVP displacement, CHO-K1 membranes)
T2 construct: expressed in transfected cells; host or cells: CHO-K1 (cell line hV1b_3H2_CHO), membranes
T2 sequence (P47901 1-424): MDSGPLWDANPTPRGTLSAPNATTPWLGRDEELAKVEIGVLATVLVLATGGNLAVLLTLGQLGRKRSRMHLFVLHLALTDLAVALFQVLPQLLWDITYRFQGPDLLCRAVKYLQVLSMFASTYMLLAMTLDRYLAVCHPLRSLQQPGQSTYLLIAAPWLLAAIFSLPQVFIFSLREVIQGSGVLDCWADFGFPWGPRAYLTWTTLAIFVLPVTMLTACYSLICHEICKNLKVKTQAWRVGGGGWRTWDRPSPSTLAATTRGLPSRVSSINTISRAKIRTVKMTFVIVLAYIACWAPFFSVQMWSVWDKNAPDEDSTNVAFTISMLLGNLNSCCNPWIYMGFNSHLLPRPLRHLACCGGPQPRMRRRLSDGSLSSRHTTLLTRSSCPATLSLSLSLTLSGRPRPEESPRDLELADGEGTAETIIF
Protocol: 1. Vasopressin V1b Receptor Binding Assay:
The substance concentration was further diluted 1:5 in the assay mixture (2% DMSO in the mixture).
All determinations were carried out as triplicate determinations.

Sequence of human vasopressin V1a receptor (P37288 whole entry): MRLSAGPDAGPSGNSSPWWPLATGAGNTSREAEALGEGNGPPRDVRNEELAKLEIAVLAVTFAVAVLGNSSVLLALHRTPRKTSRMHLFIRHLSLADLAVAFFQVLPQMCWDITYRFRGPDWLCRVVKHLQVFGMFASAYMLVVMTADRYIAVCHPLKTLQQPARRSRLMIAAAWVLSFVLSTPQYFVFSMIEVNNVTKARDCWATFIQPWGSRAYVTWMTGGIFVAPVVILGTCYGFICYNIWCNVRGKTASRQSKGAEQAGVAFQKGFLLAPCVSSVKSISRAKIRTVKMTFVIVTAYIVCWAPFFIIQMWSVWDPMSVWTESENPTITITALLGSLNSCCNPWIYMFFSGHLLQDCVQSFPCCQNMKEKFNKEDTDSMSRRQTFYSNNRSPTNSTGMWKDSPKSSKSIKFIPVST

Row | SMILES | Ki(h-OT)/Ki(h-V1b)* [1] | Ki(h-V1a)/Ki(h-V1b)* [2] | Ki [3]
1 | CCOc1ncccc1C1(NC(=O)c2ccc(N3CCN(C)CC3)cc2)C(=O)N(S(=O)(=O)c2ccc(OC)cc2)c2ccc(C#N)cc21 (stereo not drawn) [Example 4, N-[5-Cyano-3-(2-ethoxypyridin-3-yl)-1-(4-methoxyphenylsulfonyl)-2-oxo-2,3-dihydro-1H-indol-3-yl]-4-(4-methylpiperazin-1-yl)benzamide] | ++ (25-75) | +++ (>75) | 1 to 10 nM
2 | CCOc1ccccc1C1(NCc2ccc(N3CCN(C)CC3)cc2)C(=O)N(S(=O)(=O)c2ccc(OC)cc2)c2ccc(C#N)cc21 (stereo not drawn) [Example 37, 3-(2-Ethoxyphenyl)-1-(4-methoxyphenylsulfonyl)-3-[4-(4-methylpiperazin-1-yl)-benzylamino]-2-oxo-2,3-dihydro-1H-indole-5-carbonitrile] | +++ (>75) | ++ (25-75) | 1 to 10 nM
3 | CCOc1ncccc1C1(Nc2ccc(CN3CCN(C)CC3)cc2)C(=O)N(S(=O)(=O)c2ccc(OC)cc2OC)c2ccc(C#N)cc21 (stereo not drawn) [Example 74, 1-(2,4-Dimethoxyphenylsulfonyl)-3-(2-ethoxypyridin-3-yl)-3-[4-(4-methylpiperazin-1-ylmethyl)phenylamino]-2-oxo-2,3-dihydro-1H-indole-5-carbonitrile] | +++ (>75) | +++ (>75) | 1 to 10 nM
4 | CCOc1ncccc1C1(NCc2ccc(N3CCN(CC)CC3)cc2)C(=O)N(S(=O)(=O)c2ccc(OC)cc2)c2cc(F)c(C#N)cc21 (stereo not drawn) [Example 35, 3-(2-Ethoxypyridin-3-yl)-3-[4-(4-ethylpiperazin-1-yl)benzylamino]-6-fluoro-1-(4-methoxyphenylsulfonyl)-2-oxo-2,3-dihydro-1H-indole-5-carbonitrile] | +++ (>75) | + (10-<25) | 1 to 10 nM
5 | CCOc1ncccc1C1(NCc2ccc(N3CCNCC3)cc2)C(=O)N(S(=O)(=O)c2ccc(OC)cc2)c2ccc(C#N)cc21 (stereo not drawn) [Example 30, 3-(2-Ethoxypyridin-3-yl)-1-(4-methoxyphenylsulfonyl)-2-oxo-3-(4-piperazin-1-yl-benzylamino)-2,3-dihydro-1H-indole-5-carbonitrile] | +++ (>75) | +++ (>75) | 1 to 10 nM
6 | CCOc1ncccc1C1(Nc2ccc(C(=O)N3CCN(C)CC3)cc2)C(=O)N(S(=O)(=O)c2ccc(OC)cc2OC)c2ccc(C#N)cc21 (stereo not drawn) [Example 73, 1-(2,4-Dimethoxyphenylsulfonyl)-3-(2-ethoxypyridin-3-yl)-3-[4-(4-methylpiperazin-1-carbonyl)phenylamino]-2-oxo-2,3-dihydro-1H-indole-5-carbonitrile] | ++ (25-75) | +++ (>75) | 10 to 100 nM
7 | CCOc1ncccc1C1(NCc2ccc(N3CCN(C)CC3)cc2)C(=O)N(S(=O)(=O)c2ccc(OC)cc2)c2cc(F)c(F)cc21 (stereo not drawn) [Example 14, 5,6-Difluoro-3-(2-ethoxypyridin-3-yl)-1-(4-methoxyphenylsulfonyl)-3-[4-(4-methylpiperazin-1-yl)benzylamino]-1,3-dihydroindol-2-one] | ++ (25-75) | + (10-<25) | 1 to 10 nM
8 | CCOc1ncccc1C1(NCc2ccc(N3CCN(C)CC3)cc2)C(=O)N(S(=O)(=O)c2ccccc2)c2ccc(C#N)cc21 (stereo not drawn) [Example 27, 1-Phenylsulfonyl-3-(2-ethoxypyridin-3-yl)-3-[4-(4-methylpiperazin-1-yl)benzylamino]-2-oxo-2,3-dihydro-1H-indole-5-carbonitrile] | +++ (>75) | + (10-<25) | 10 to 100 nM
9 | CCOc1ncccc1C1(NC(=O)c2ccc(N3CCN(C)CC3)cc2)C(=O)N(S(=O)(=O)c2ccc(OC)cc2OC)c2ccc(C#N)cc21 (stereo not drawn) [Example 6, N-[5-Cyano-1-(2,4-dimethoxyphenylsulfonyl)-3-(2-ethoxypyridin-3-yl)-2-oxo-2,3-dihydro-1H-indol-3-yl]-4-(4-methylpiperazin-1-yl)benzamide] | ++ (25-75) | +++ (>75) | 1 to 10 nM
10 | CCOc1ncccc1C1(Nc2ccc(CN3CCN(C)CC3)cc2)C(=O)N(S(=O)(=O)c2ccc(OC)cc2)c2ccc(C#N)cc21 (stereo not drawn) [Example 75, 3-(2-Ethoxypyridin-3-yl)-1-(4-methoxyphenylsulfonyl)-3-[4-(4-methylpiperazin-1-ylmethyl)-phenylamino]-2-oxo-2,3-dihydro-1H-indole-5-carbonitrile] | +++ (>75) | ++ (25-75) | 10 to 100 nM
11 | CCOc1ncccc1C1(NCc2ccc(N3CCN(C)CC3)cc2)C(=O)N(S(=O)(=O)c2ccc(OC)cc2)c2ccc(C#N)cc21 (stereo not drawn) [Example 16, 3-(2-Ethoxypyridin-3-yl)-1-(4-methoxyphenylsulfonyl)-3-[4-(4-methylpiperazin-1-yl)-benzylamino]-2-oxo-2,3-dihydro-1H-indole-5-carbonitrile] | +++ (>75) | +++ (>75) | 1 to 10 nM
12 | CCOc1ncccc1C1(NCc2ccc(N3CCN(C)CC3)cc2)C(=O)N(S(=O)(=O)c2ccc(OC)cc2OC)c2ccc(C#N)cc21 (stereo not drawn) [Example 17, 1-(2,4-Dimethoxyphenylsulfonyl)-3-(2-ethoxypyridin-3-yl)-3-[4-(4-methylpiperazin-1-yl)-benzylamino]-2-oxo-2,3-dihydro-1H-indole-5-carbonitrile] | + (10-<25) | + (10-<25) | 1 to 10 nM
13 | CCOc1ncccc1C1(NCc2ccc(N3CCNCC3)cc2)C(=O)N(S(=O)(=O)c2ccc(OC)cc2)c2cc(F)c(C#N)cc21 (stereo not drawn) [Example 34, 3-(2-Ethoxypyridin-3-yl)-6-fluoro-1-(4-methoxyphenylsulfonyl)-2-oxo-3-(4-piperazin-1-yl-benzylamino)-2,3-dihydro-1H-indole-5-carbonitrile] | +++ (>75) | + (10-<25) | 1 to 10 nM
14 | CCOc1ncccc1C1(NCc2ccc(N3CCN(C)CC3)cc2)C(=O)N(S(=O)(=O)c2ccc(C#N)cc2)c2ccc(C#N)cc21 (stereo not drawn) [Example 28, 1-(4-Cyanophenylsulfonyl)-3-(2-ethoxypyridin-3-yl)-3-[4-(4-methylpiperazin-1-yl)-benzylamino]-2-oxo-2,3-dihydro-1H-indole-5-carbonitrile] | +++ (>75) | + (10-<25) | 10 to 100 nM
15 | CCOc1ncccc1C1(NCc2cccc(N3CCN(C)CC3)c2)C(=O)N(S(=O)(=O)c2ccc(OC)cc2)c2ccc(C#N)cc21 (stereo not drawn) [Example 43, 3-(2-Ethoxypyridin-3-yl)-1-(4-methoxyphenylsulfonyl)-3-[3-(4-methylpiperazin-1-yl)-benzylamino]-2-oxo-2,3-dihydro-1H-indole-5-carbonitrile] | + (10-<25) | +++ (>75) | 1 to 10 nM
16 | CCOc1ncccc1C1(NCc2ccc(N3CCN(C)CC3)cc2)C(=O)N(S(=O)(=O)c2cccc(OC)c2)c2ccc(C#N)cc21 (stereo not drawn) [Example 25, 3-(2-Ethoxypyridin-3-yl)-1-(3-methoxyphenylsulfonyl)-3-[4-(4-methylpiperazin-1-yl)-benzylamino]-2-oxo-2,3-dihydro-1H-indole-5-carbonitrile] | + (10-<25) | ++ (25-75) | 10 to 100 nM

From patent US8629148B2, “Substituted oxindole-derivatives and the use thereof for the treatment of vasopressin-dependent illnesses” (AbbVie Deutschland GmbH & Co. KG, priority 2007, dated 2014)
